Source: article PMC5940854, “Nitrothiophene carboxamides, a novel narrow spectrum antibacterial series: Mechanism of action and Efficacy” (Scientific Reports, 2018)
Values after ≈ are worked out from the molar mass of the structure shown. Residues, ends and D or L forms follow the SMILES beside them. *: point of attachment. βNA = c1ccc2cc(N*)ccc2c1

Legend:
[1] = system: E. coli clinical isolates; test: MIC on panel of E. coli clinical isolates; format: cell-based
[2] = system: ATCC25922; test: MIC on E. coli ATCC25922; format: cell-based; conditions: strain ATCC25922
Protocol: The inoculum used for all the experiments is derived from a single seed lot that is maintained as glycerol stocks at −80 °C and are sub cultured on LB plate for isolated colonies. Single colony of each strain is grown in M9 medium. All test compound stocks and dilutions are prepared in DMSO. Serial two-fold dilutions of compounds are prepared separately, with the concentrations ranging from 2 mg/mL to 0.015 mg/mL. To 150 µl (3–7 × 10^5 CFU/ml) of bacterial culture in 96 well microtitre plates, 3 μL compound from each of the dilutions is added to respective wells to obtain final concentrations ranging from 40 µg/mL to 0.3 µg/mL of the test compounds. Media control, culture control and appropriate reference drug controls are included. […] Growth is monitored by checking absorbance at 600 nm (A600). […] The samples from MIC and above concentrations are plated for MBC (Minimum Bactericidal Concentration). The samples are diluted 1:10 and plated on LB agar plates. […] The killing kinetics is determined by enumerating survivors at various time points following compound exposure. E. coli cells (~10^7 CFU/ml; A600 of 0.1) are treated with various concentrations (40 µg/mL to 0.3 µg/mL) of compounds in a 96-well microtitre plate. At various time intervals (0 to 8 h), 30 μl volumes of treated cultures are serially diluted and plated on LB agar plates. […] Data is expressed as the log10 CFU for each drug treatment.

[3] = molecular target: T1, AcrB efflux pump in E. coli BW25113 (Escherichia coli, UniProt P31224); test: Nile red efflux assay (whole-cell competition); format: cell-based
T1 construct: endogenous in cells; host or cells: E. coli BW25113 (wild type)
Protocol: The Nile red assay is adopted from Bohnert et al.[18]. An overnight culture of E. coli strain BW25113 is harvested and is resuspended in 20 mM potassium phosphate buffer (pH 7.0) containing 1 mM MgCl2 (PPB). The cells are adjusted to an A660 of 1.0 in PPB and aliquoted into glass tubes (2 ml each). Carbonylcyanide-m-chlorophenylhydrazone (CCCP; a protonophore that uncouples the electron transport chain and thus inhibits AcrB mediated efflux) is added to a final concentration of 10 µM (5 mM stock solution in 50% DMSO) and incubated for 15 minutes before adding the potential competitor at desired concentrations. Nile red is then added (stock solution of 5 mM in 10% dimethyl formamide-90% ethanol [vol/vol]) to a final concentration of 5 µM. The cell suspension is incubated at room temperature on a shaker for 3 hours. The cells are harvested and resuspended in 2 ml PPB in the presence of the competitor. The cell suspension is aliquoted in a fluorimeter cuvette, to which, 100 µl of 1 M Glucose is added to activate the electron transport chain. The rate of efflux is measured by Tefflux50, it is the time taken for 50% of Nile red to be effluxed out in presence of the compounds. The fluorescence is measured (Excitation 552 nm, Emission 636 nm) for 200 seconds.

[4] = molecular target: T2, AcrB (Escherichia coli, UniProt P31224); test: Thermal shift assay with CPM dye; set-up: species or system E. coli; conditions: AcrB vs apo-protein; > 1°C implies binding
T2 construct: Full length acrB gene was amplified from E. coli; BW25113; His-tag (C); made in house; host or cells: E. coli C43(DE3), plasmid pET21a
Protocol: AcrB overexpression protocol is adopted from Du. et al.[31]. Full length acrB gene was amplified from E. coli. BW25113 using Forward Primer 5′-[…]-3′ Reverse Primer 5′-[…]-3′ and cloned into the plasmid pET21a. The resultant plasmid that would express AcrB with a C-terminal His-tag is transformed into E. coli strain C43(DE3). The cells are induced on reaching A600 = 0.6 and transferred to 18 °C. The culture is harvested by centrifugation and re-suspended in Buffer A (100 mM Sodium Phosphate, 100 mM NaCl, 10 mM Imidazole, pH = 7.4, 100 µg/ml protease inhibitor cocktail from Roche and 5 U/ml DNase I and 5 mg/ml lysozyme). The cells are lysed at 15000 psi using Emulsiflex and centrifuged at 8000 g for removing cell debris. The membrane is isolated by centrifuging the resultant supernatant at 125000 g (see Coomassie stained SDS-PAGE of the purified protein Figure S9). Membrane solubilisation is done using Buffer A and 1.5% DDM (n-Dodecyl-β-D-Maltoside). Ni-NTA chromatography is used to purify the His-tagged protein and eluted in Buffer A with 300 mM Imidazole and 1.5% DDM.
The assay is performed according to protocols established elsewhere. CPM (N- [4-(7-diethylamino-4-methyl-3-coumarinyl) phenyl] maleimide) is a thiol specific fluorochrome (Excitation 387 nm, Emission 463 nm) and is non-fluorescent in an unbound state. The proteins, on thermal unfolding exposes cysteines allowing the CPM to bind and fluoresce. […]. The thermal denaturation is performed in a fluorimeter that is heated from 25 to 90 °C at a ramp rate of 1 °C/min. The Tm is calculated by analysing the melting profiles using Boltzmann Sigmoid function (GraphPad Prism) and ∆Tm is calculated by measuring the difference between the Tm of inhibitor bound protein and the apo-protein.

T1 sequence (P0AE06 25-397): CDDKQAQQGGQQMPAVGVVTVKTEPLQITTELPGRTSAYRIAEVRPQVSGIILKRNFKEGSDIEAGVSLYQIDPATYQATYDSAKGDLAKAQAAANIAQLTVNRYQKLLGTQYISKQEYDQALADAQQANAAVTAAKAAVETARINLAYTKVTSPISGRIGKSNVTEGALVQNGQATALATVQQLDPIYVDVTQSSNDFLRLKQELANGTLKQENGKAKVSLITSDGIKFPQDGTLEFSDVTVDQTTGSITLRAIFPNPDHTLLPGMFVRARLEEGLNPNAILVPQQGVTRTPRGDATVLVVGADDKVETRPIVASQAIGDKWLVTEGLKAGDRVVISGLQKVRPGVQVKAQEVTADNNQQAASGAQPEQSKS
T1 sequence (P31224 whole entry): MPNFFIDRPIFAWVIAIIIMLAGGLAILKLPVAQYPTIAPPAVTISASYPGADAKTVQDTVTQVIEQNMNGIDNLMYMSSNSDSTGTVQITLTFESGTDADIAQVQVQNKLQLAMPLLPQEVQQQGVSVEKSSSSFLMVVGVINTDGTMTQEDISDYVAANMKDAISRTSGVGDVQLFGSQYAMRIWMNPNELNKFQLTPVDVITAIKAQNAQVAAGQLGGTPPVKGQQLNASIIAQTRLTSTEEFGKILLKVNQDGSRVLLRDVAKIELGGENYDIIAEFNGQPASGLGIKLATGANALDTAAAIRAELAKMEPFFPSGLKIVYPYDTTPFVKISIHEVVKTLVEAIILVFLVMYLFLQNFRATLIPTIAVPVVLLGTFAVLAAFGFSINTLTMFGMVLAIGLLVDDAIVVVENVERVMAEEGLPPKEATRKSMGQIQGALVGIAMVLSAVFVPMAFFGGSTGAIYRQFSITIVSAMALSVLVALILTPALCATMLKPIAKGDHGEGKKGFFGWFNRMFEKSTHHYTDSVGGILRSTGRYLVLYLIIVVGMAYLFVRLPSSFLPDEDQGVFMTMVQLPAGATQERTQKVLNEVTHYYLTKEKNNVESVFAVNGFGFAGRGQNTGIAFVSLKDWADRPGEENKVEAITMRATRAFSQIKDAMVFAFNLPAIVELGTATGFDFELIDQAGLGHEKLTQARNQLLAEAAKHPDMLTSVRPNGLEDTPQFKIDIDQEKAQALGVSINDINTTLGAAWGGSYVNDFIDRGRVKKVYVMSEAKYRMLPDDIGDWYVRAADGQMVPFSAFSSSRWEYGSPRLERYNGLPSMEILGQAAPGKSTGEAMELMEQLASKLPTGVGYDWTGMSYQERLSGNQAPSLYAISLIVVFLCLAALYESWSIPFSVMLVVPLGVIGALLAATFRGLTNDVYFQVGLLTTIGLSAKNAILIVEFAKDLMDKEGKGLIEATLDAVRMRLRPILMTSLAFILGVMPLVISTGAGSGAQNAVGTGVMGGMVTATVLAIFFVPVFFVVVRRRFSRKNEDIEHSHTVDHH
T1 sequence (P02930 23-493, further chain): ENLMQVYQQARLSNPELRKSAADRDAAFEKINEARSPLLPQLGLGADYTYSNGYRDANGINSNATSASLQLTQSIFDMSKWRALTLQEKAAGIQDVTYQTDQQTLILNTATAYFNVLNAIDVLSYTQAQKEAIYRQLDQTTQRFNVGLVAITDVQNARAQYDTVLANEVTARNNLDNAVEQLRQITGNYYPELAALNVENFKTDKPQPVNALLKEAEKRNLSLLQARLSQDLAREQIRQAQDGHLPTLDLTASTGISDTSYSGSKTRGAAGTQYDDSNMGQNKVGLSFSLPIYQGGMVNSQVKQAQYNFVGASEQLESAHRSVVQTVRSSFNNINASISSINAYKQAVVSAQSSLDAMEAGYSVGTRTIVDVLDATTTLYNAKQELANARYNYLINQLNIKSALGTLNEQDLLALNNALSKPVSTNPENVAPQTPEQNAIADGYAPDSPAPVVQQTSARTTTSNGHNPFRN
T2 sequence (P31224 whole entry): as the sequence (P31224 whole entry) above

`C[C@@H](O)[C@H]1C(=O)N2C(C(=O)O)=C(S[C@@H]3CN[C@H](C(=O)N(C)C)C3)[C@H](C)[C@H]12` [meropenem, reference compound] was tested, and the “MIC Range” value ([1]; 75 E.coli clinical isolates) was 0.03 to 8 µg/mL, the MIC50 ([1]; Escherichia coli, 75 E.coli clinical isolates, 50% clinical isolates) was 0.06 µg/mL (≈ 0.156 µM) and the MIC90 ([1]; Escherichia coli, 75 E.coli clinical isolates, 90% clinical isolates) was 8 µg/mL (≈ 20.9 µM). The MIC ([1]; strain SEC001) was over 4 µg/mL, the MIC ([1]; strain SEC002) was 0.13 µg/mL (≈ 0.339 µM) and the MIC ([1]; strain SEC003) was over 4 µg/mL. For the same compound, the MIC ([1]; strain SEC004) was over 4 µg/mL, the MIC ([1]; strain SEC005) was 0.06 µg/mL (≈ 0.156 µM) and the MIC ([1]; strain SEC006) was 0.03 µg/mL (≈ 0.0782 µM). For the same compound, the MIC ([1]; strain SEC007) was 0.03 µg/mL (≈ 0.0782 µM), the MIC ([1]; strain SEC008) was 0.13 µg/mL (≈ 0.339 µM) and the MIC ([1]; strain SEC011) was 0.06 µg/mL (≈ 0.156 µM). It also gave an MIC ([1]; strain SEC012) of 0.06 µg/mL (≈ 0.156 µM), an MIC ([1]; strain SEC013) of 0.06 µg/mL (≈ 0.156 µM) and an MIC ([1]; strain SEC014) of 0.06 µg/mL (≈ 0.156 µM). For the same compound, the MIC ([1]; strain SEC015) was over 4 µg/mL, the MIC ([1]; strain SEC016) was 0.03 µg/mL (≈ 0.0782 µM) and the MIC ([1]; strain SEC017) was 0.06 µg/mL (≈ 0.156 µM). The MIC ([1]; strain SEC018) was 0.06 µg/mL (≈ 0.156 µM), the MIC ([1]; strain SEC019) was 0.06 µg/mL (≈ 0.156 µM) and the MIC ([1]; strain SEC020) was over 4 µg/mL. For the same compound, the MIC ([1]; strain SEC021) was 0.03 µg/mL (≈ 0.0782 µM), the MIC ([1]; strain SEC022) was 0.03 µg/mL (≈ 0.0782 µM) and the MIC ([1]; strain SEC023) was 0.25 µg/mL (≈ 0.652 µM). The MIC ([1]; strain SEC024) was 0.25 µg/mL (≈ 0.652 µM), the MIC ([1]; strain SEC025) was 0.25 µg/mL (≈ 0.652 µM) and the MIC ([1]; strain SEC026) was 0.13 µg/mL (≈ 0.339 µM). The MIC ([1]; strain SEC028) was 0.03 µg/mL (≈ 0.0782 µM), the MIC ([1]; strain SEC029) was 0.06 µg/mL (≈ 0.156 µM) and the MIC ([1]; strain SEC031) was 0.06 µg/mL (≈ 0.156 µM). It also gave an MIC ([1]; strain SEC032) of 0.03 µg/mL (≈ 0.0782 µM), an MIC ([1]; strain SEC033) of 0.03 µg/mL (≈ 0.0782 µM) and an MIC ([1]; strain SEC034) of 0.03 µg/mL (≈ 0.0782 µM). It also gave an MIC ([1]; strain SEC035) of 0.5 µg/mL (≈ 1.3 µM), an MIC ([1]; strain SEC036) of 0.06 µg/mL (≈ 0.156 µM) and an MIC ([1]; strain SEC037) of 0.03 µg/mL (≈ 0.0782 µM). The MIC ([1]; strain SEC038) was 0.06 µg/mL (≈ 0.156 µM), the MIC ([1]; strain SEC039) was 0.03 µg/mL (≈ 0.0782 µM) and the MIC ([1]; strain SEC040) was 0.06 µg/mL (≈ 0.156 µM). It also gave an MIC ([1]; strain SEC041) of over 4 µg/mL, an MIC ([1]; strain SEC042) of 2 µg/mL (≈ 5.22 µM) and an MIC ([1]; strain SEC043) of 0.06 µg/mL (≈ 0.156 µM). It also gave an MIC ([1]; strain SEC044) of 0.13 µg/mL (≈ 0.339 µM), an MIC ([1]; strain SEC045) of 0.06 µg/mL (≈ 0.156 µM) and an MIC ([1]; strain SEC046) of 0.03 µg/mL (≈ 0.0782 µM). It also gave an MIC ([1]; strain SEC047) of 0.06 µg/mL (≈ 0.156 µM), an MIC ([1]; strain SEC048) of 0.25 µg/mL (≈ 0.652 µM) and an MIC ([1]; strain SEC049) of 0.5 µg/mL (≈ 1.3 µM). It also gave an MIC ([1]; strain SEC050) of 0.03 µg/mL (≈ 0.0782 µM), an MIC ([1]; strain SEC051) of 0.03 µg/mL (≈ 0.0782 µM) and an MIC ([1]; strain SEC052) of 1 µg/mL (≈ 2.61 µM). The MIC ([1]; strain SEC053) was 1 µg/mL (≈ 2.61 µM), the MIC ([1]; strain SEC054) was 0.03 µg/mL (≈ 0.0782 µM) and the MIC ([1]; strain SEC055) was 0.06 µg/mL (≈ 0.156 µM). For the same compound, the MIC ([1]; strain SEC057) was 0.13 µg/mL (≈ 0.339 µM), the MIC ([1]; strain SEC058) was 0.06 µg/mL (≈ 0.156 µM) and the MIC ([1]; strain SEC059) was 0.06 µg/mL (≈ 0.156 µM). The MIC ([1]; strain SEC060) was 0.06 µg/mL (≈ 0.156 µM), the MIC ([1]; strain SEC061) was 0.03 µg/mL (≈ 0.0782 µM) and the MIC ([1]; strain SEC062) was 0.03 µg/mL (≈ 0.0782 µM). For the same compound, the MIC ([1]; strain SEC063) was over 4 µg/mL, the MIC ([1]; strain SEC064) was 0.06 µg/mL (≈ 0.156 µM) and the MIC ([1]; strain SEC065) was 0.03 µg/mL (≈ 0.0782 µM). For the same compound, the MIC ([1]; strain SEC067) was 0.06 µg/mL (≈ 0.156 µM), the MIC ([1]; strain SEC068) was over 4 µg/mL and the MIC ([1]; strain SEC069) was 2 µg/mL (≈ 5.22 µM). It also gave an MIC ([1]; strain SEC070) of 0.03 µg/mL (≈ 0.0782 µM), an MIC ([1]; strain SEC071) of 0.03 µg/mL (≈ 0.0782 µM) and an MIC ([1]; strain SEC072) of 0.06 µg/mL (≈ 0.156 µM). For the same compound, the MIC ([1]; strain SEC073) was 0.13 µg/mL (≈ 0.339 µM), the MIC ([1]; strain SEC074) was 0.06 µg/mL (≈ 0.156 µM) and the MIC ([1]; strain SEC075) was 0.13 µg/mL (≈ 0.339 µM). It also gave an MIC ([1]; strain SEC076) of 0.06 µg/mL (≈ 0.156 µM), an MIC ([1]; strain SEC077) of 0.5 µg/mL (≈ 1.3 µM) and an MIC ([1]; strain SEC078) of over 4 µg/mL. The MIC ([1]; strain SEC079) was 0.06 µg/mL (≈ 0.156 µM), the MIC ([1]; strain SEC080) was 0.03 µg/mL (≈ 0.0782 µM) and the MIC [2] was 0.06 µg/mL (≈ 0.156 µM).

`NC(N)=NCCC[C@H](NC(=O)[C@@H](N)Cc1ccccc1)C(=O)Nc1ccc2ccccc2c1` [PAβN, Phenylalanine-Arginine Beta-Naphthylamide, reference compound] (H-Phe-Arg-βNA) was tested, and the Tefflux50 ([3]; 1µM compound, time for 50% of Nile red to be effluxed, read for 200 seconds) was 200 s, the Tefflux50 ([3]; 9µM compound) was 200 s and the Tefflux50 ([3]; 27µM compound) was 200 s. For the same compound, the Tefflux50 ([3]; 81µM compound) was 200 s, the Tefflux50 ([3]; 100µM compound) was 200 s and the Tefflux50 ([3]; 200µM compound) was 200 s. For the same compound, the Tefflux50 ([3]; 400µM compound) was 200 s and the “∆Tm” value [4] was 3.84 °C.
